# Results as given in PMC7590976, “Detection of Active Granzyme A in NK92 Cells with Fluorescent Activity-Based Probe” (Journal of Medicinal Chemistry, 2020).
# Where “and” joins values, the source holds several entries; their conditions need not be identical. Equal entries are not always repeated. Non-standard residues stand in square brackets, D forms with d. *: point of attachment. Oic = O=C(O)[C@@H]1C[C@@H]2CCCC[C@@H]2N1; ACC = NC(=O)Cc1cc(=O)oc2cc(N*)ccc12
# What was measured:
# [1] = biological target: T1, GrB (Homo sapiens, UniProt P10144); experiment: GrA substrate selectivity testing on GrB; format: biochemical; conditions: substrate 200 μM (Fig 3A) or 67 μM, 18 nM GrB
# T1 construct: made in house; host or cells: Pichia pastoris
# Description: Since GrA and GrK are the most structurally similar Grs, they may recognize and hydrolyze the same natural and synthetic substrates. Therefore, we tested whether our new GrA substrates are also recognized by GrK or GrB (Figure 3A). For this experiment, we screened substrates SK8 to SK28 and a GrKref substrate (Ac-Tyr-Arg-Phe-Lys-ACC) or GrBref substrate (Ac-Ile-Glu-Pro-Asp-ACC) at the same concentration using a plate reader, and we monitored the increase in fluorescence over time. The linear portions of the diagram were analyzed, and as we expected, the majority of the substrates were well recognized by GrK, even better than their recognition by GrA. […] Based on that, we concluded that Tic-Gly-Oic-Arg is a leading sequence for a specific potent inhibitor and ABP for GrA.
# Figure 3 (A) GrA substrate selectivity testing on GrK and GrB. Substrates SK8–SK28 and the reference GrK and GrB substrates were placed in a 96-well plate at a concentration of 200 μM and treated with GrK or GrB. […] Data present the average of 2 replicates as adjusted RFU/s.
# Figure S2. Selectivity of SK15 substrate toward selected serine proteases (GrA, GrB, GrM, GrK,
# PR3, and hNE). The reference substrates were as follows: Ac-Ile-Gly-Pro-Arg-ACC for GrA, Ac -Tyr-
# Arg-Phe-Lys-ACC for GrK, Ac-Ile-Glu-Pro-Asp-ACC for GrB, Ac-Lys-Val-Pro-Leu-ACC for GrM,
# Ac-Glu(O-Bzl)-Lys(Ac)-Hyp(Bzl)-Nva-ACC for PR3 and Ac-Arg(NO)2-Glu(Bzl)-Oic-Abu-ACC for hNE.
# Substrates were placed in a 96-well plate at a concentration of 67 µM and treated with optimal
# and emission wavelengths. Data present the average of 2 replicates as adjusted RFU/s.
# Figure S3. Detection of active GrA in NK92 cells.
# (also on this page, place not known: S K15 hNE) . Ac-Tyr- -Arg(NO)2-Glu(Bzl)-Oic-Abu-ACC ( 89 G rA cell s. reference reference SK15 reference SK15 reference SK15 reference SK15 reference SK15 0 50 100 substrate turnover, %RFU/s PR3GrMGrBGrK hNEGrA SK15 selectivity) […]
# [2] = biological target: T2, GrA (Homo sapiens, UniProt P12544); experiment: Steady-state Michaelis–Menten kinetics of fluorogenic ACC substrates with GrA; format: biochemical; conditions: GrA 93 nM, 37 °C, ACC fluorescence 355/460 nm
# T2 construct: made in house; host or cells: Pichia pastoris
# T2 sequence (P12544 29-262): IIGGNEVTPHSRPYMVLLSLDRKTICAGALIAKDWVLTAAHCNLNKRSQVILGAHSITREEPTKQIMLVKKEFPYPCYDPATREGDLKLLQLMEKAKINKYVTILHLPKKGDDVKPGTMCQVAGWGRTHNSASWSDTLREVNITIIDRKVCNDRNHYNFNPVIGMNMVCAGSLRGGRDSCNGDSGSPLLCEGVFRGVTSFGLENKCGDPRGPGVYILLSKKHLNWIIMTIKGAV
# Description: All chemical and biological reagents were purchased from commercial suppliers and used without further purification. The following reagents for solid phase peptide synthesis, Rink Amide RA resin (particle size 200–300 mesh, loading 0.74 mmol/g), 2-chlorotrityl chloride resin, Fmoc-protected amino acids, biotin, 1-[bis(dimethylamino)methylene]-1H-1,2,3-triazolo[4,5-b] pyridinium 3-oxid hexafluorophosphate (HATU), piperidine, diisopropylcarbodiimide (DICI), and trifluoroacetic acid (TFA), were purchased from Iris Biotech GmbH (Marktredwitz, Germany); anhydrous N-hydroxybenzotriazole (HOBt, purity >98%) was purchased from Creosauls; 2,4,6-collidine (2,4,6-trimethylpyridine), HPLC pure acetonitrile, and triisopropylsilane (TIPS) were purchased from Sigma-Aldrich (Poznan, Poland); and N,N-diisopropylethylamie (DIPEA) was purchased from VWR International (Gdansk, Poland). Solvents such as N,N-dimethylformamide (DMF), dichloromethane (DCM), methanol (MeOH), diethyl ether (Et2O), and acetic acid (AcOH) were purchased from Avantor (Gliwice, Poland). Cy5 was purchased from Lumiprobe GmbH (Hannover, Germany). Human neutrophil elastase was purchased from BioCentrum (Kraków, Poland) and proteinase 3 from Athens Research Technology (Athens, USA). Anti-GrA antibody (rabbit, monoclonal, ab209205) was obtained from Abcam (Cambridge, Great Britain). All cell lines were purchased from DSMZ (Braunschweig, Germany) or ATCC (Manassas, USA). All kinetic assays were performed using a Spectra Max Gemini XPS spectrofluorometer (Molecular Devices) on 96-well Corning plates. The parameters of the process were as follows: 37 °C; excitation/emission wavelength, 355/460 nm; cutoff, 455 nm; varying concentrations of substrates and enzyme. All measurements were performed in duplicate, and the data represent the average of these repetitions
# [3] = tested on: GrA; experiment: Residual activity assay, GrA preinhibited with SK15I or SK15.5; format: biochemical, human; conditions: substrate SK15; preincubation 30 min, 37 °C
# Procedure: (§1) We wondered whether the selectivity of our SK15-based molecules for GrA would be maintained by substrate structure modifications, such as replacing ACC with a diphenyl phosphonate warhead and changing the N-terminus from acetyl to the cyanine derivative Cy5.
# (§2) As a control, enzymes without inhibitor and probe were tested.
# [4] = tested on: GrA in NK92 cell lysates; conditions: lysates 1 × 10^7 cells/mL, probe 250 nM to 2 μM, 1 h, 37 °C
# [5] = biological target: T3, GrK (Homo sapiens, UniProt P49863); experiment: Residual activity assay, GrK; format: biochemical; conditions: 488 nM GrK preincubated with 10 μM compound 30 min 37 °C; 200 μM GrKref
# T3 construct: made in house; host or cells: Pichia pastoris
# T3 sequence (P49863 27-264): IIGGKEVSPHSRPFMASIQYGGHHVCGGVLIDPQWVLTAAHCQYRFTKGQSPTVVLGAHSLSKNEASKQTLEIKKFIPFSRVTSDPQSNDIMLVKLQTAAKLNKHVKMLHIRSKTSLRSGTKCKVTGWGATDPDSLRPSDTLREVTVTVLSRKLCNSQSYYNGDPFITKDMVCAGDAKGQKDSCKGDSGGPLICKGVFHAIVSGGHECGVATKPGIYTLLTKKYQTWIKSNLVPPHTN
# Procedure: as §1, §2
# [6] = tested on: hNE; experiment: Residual activity assay, hNE; format: biochemical, human; conditions: 3.3 nM hNE preincubated with 10 μM compound 30 min 37 °C; substrate Ac-Arg(NO)2-Glu(Bzl)-Oic-Abu-ACC
# Procedure: as §1, §2
# [7] = biological target: T2, GrA; experiment: Second-order inhibition rate constant kobs/I toward GrA, pseudo-first-order conditions; format: biochemical; conditions: pseudo-first-order; substrate SK15 10 μM; inhibitor 714–333 nM; GrA 350 nM added; pH 7.5, 37 °C; average of at least three experiments with SD
# Procedure: We calculated the apparent second-order rate constants for inhibition (kobs(app)/I) of GrA-mediated SK15I under pseudo first-order conditions by serially diluting the new inhibitor in the range of 714–333 nM with a constant optimal substrate (SK15) concentration of 10 μM (Figure 3B).
# The second-order inhibition rate constant (kobs/I expressed in M^–1 s^–1) toward GrA was measured under pseudo-first-order kinetic conditions. Ten microliters of substrate (SK15) was mixed with varying inhibitor or probe concentrations and incubated at 37 °C for 15 min. […] Experiments are presented as the average of at least three experiments with standard deviation.
# [8] = biological target: T1, GrB; experiment: Residual activity assay, GrB; format: biochemical; conditions: 18 nM GrB preincubated with 10 μM compound 30 min 37 °C; 200 μM GrBref
# Procedure: as §1, §2
# [9] = biological target: T2, GrA; experiment: In-gel detection of recombinant GrA with SK15.5 (SDS-PAGE); format: binding; conditions: GrA 250 nM, 37 °C
# Procedure: (§3) Next, we tested the utility of our fluorescent probe for the in-gel detection of active GrA in test samples. […] We then ran a simple SDS-PAGE assay to detect labeled GrA (Figure 4A). […] In our hands, the probe bound to the enzyme, as indicated by the fluorescent 35 kDa species, after the minimal incubation time (5 min). […] The optimal concentration was 500 nM (strong signal) (Figure 4B).
# (§4) (A) Incubation time of SK15.5 with enzyme optimization. […] (D) GrA in-gel detection in NK92 cell lysates. […] The results are representative of at least 2 replicates.
# (§5) In contrast to the closely related GrB, GrH, GrM, and GrK, GrA is a homodimer formed by stable disulfide-linked subunits.[26] Since the subunits are oriented in opposite directions, the surrounding area may form an exosite.[26]
# (§6) In the incubation time optimization assay, the enzyme and probe concentrations were constant (250 nM), and the incubation time ranged from 0 to 120 min. […] Enzyme was incubated with probe in a volume of 80 μL, followed by the reduction with 40 μL of 3 × SDS/DTT for 5 min at 95 °C. Samples were centrifuged (3 min, 4500g), and 40 μL of each sample was run on 4–12% Bis-Tris 10-well gels (Invitrogen). The first well was loaded with 2 μL of the protein marker PageRuler Plus Prestained Protein Ladder (Thermo Scientific). Electrophoresis was conducted at 165 V for 37 min at room temperature. […] Total sample volume was 80 μL, to which 40 μL of 3× SDS/DTT was added and boiled for 5 min at 95 °C. Samples were centrifuged (3 min, 4500g), and 40 μL of each sample was run on 4–12% Bis-Tris 10-well gels (Invitrogen). Each form of the enzyme without SK15.5 and probe itself were run as controls. The first well was loaded with 2 μL of protein marker PageRuler Plus Prestained Protein Ladder (Thermo Scientific). Electrophoresis and membrane transfer were conducted in the same manner as above.
# [10] = biological target: T4, GrA (Homo sapiens, UniProt P12544); experiment: as above; format: binding; conditions: GrA forms 250 nM, probe 500 nM, 1 h, Western blot
# T4 construct: made in house; host or cells: Pichia pastoris
# T4 sequence (P12544 27-262): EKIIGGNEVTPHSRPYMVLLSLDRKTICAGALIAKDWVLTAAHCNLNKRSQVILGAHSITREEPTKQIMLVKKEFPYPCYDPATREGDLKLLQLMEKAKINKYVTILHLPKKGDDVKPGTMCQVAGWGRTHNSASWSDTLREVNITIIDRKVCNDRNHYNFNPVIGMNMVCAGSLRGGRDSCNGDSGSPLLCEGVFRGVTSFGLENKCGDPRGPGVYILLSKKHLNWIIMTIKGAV
# Procedure: as §3, §4, §5, §6
# [11] = tested on: PR3; experiment: Residual activity assay, PR3; format: biochemical; conditions: 3.4 nM PR3 preincubated with 10 μM compound 30 min 37 °C; substrate Ac-Glu(O-Bzl)-Lys(Ac)-Hyp(Bzl)-Nva-ACC
# Procedure: as §1, §2
# [12] = tested on: GrM; experiment: Residual activity assay, GrM; format: biochemical, human; conditions: 74 nM GrM preincubated with 10 μM compound 30 min 37 °C; substrate Ac-Lys-Val-Pro-Leu-ACC
# Procedure: as §1, §2
# [13] = tested on: human GrA; experiment: P1 library screening (individual substrates Ac-Ile-Ser-Pro-P1-ACC) with GrA; conditions: relative to best P1 residue (100%); substrates at the same concentration; fluorescence 355/460 nm
# T1 sequence (P10144 21-247): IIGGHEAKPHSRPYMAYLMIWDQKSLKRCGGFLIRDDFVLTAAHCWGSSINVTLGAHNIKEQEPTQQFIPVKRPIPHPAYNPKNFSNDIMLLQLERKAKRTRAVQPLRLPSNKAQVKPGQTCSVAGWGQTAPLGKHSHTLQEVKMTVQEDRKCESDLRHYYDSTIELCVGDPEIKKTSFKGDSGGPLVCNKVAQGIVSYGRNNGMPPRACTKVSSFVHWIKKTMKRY
substance,measurement,setting,value
Ac-IG[Oic]R-{ACC} (SMILES CC[C@H](C)[C@H](NC(C)=O)C(=O)NCC(=O)N1[C@H](C(=O)N[C@@H](CCCNC(=N)N)C(=O)Nc2ccc3c(CC(N)=O)cc(=O)oc3c2)C[C@@H]2CCCC[C@@H]21) [SK17],hydrolysis by GrB (in words),[1],significantly hydrolyzed
"Ac-Ile-Gly-Pro-Arg-ACC (Ac-IGPR-{ACC}; SMILES CC[C@H](C)[C@H](NC(C)=O)C(=O)NCC(=O)N1CCC[C@H]1C(=O)N[C@@H](CCCNC(=N)N)C(=O)Nc1ccc2c(CC(N)=O)cc(=O)oc2c1) [SK7, reference compound]",kcat,[2]; assay buffer pH 7.5,0.035 ± 0.00076 s⁻¹
same,kcat/KM,[2]; assay buffer pH 7.5,78 ± 6.60 s^–1 M^–1 and 78 ± 6.6 M^–1 s^–1
same,Km,"[2]; substrate 1000–7.81 μM, 50 mM Tris, 100 mM NaCl, 5 mM CaCl2, 0.01% Tween-20, pH 7.5, Michaelis–Menten nonlinear regression, duplicate",450 ± 1.3 µM
Ac-Met(O)-Gly-Hyp(Bzl)-3-Abz-ACC [SK13],hydrolysis by GrB (in words),[1],significantly hydrolyzed
Cy5-Ahx-Tic-Gly-Oic-Arg^P(OPh)2 [SK15.5],residual GrA activity after preinhibition (in words),[3],completely blocked
same,selectivity of labeling in NK92 cell lysates (in words),[4],did not observe any additional bands
same,inhibition of GrK,[5],3%
same,inhibition of hNE,[6],almost no inhibition effect
same,kobs/I,[7],3521 ± 296 M^–1 s^–1
same,inhibition of GrB,[8],almost no inhibition effect
same,optimal probe concentration for GrA labeling (strong signal),"[9]; 30 min, SDS-PAGE",500 nM
same,"detection limit, minimum probe concentration needed for GrA labeling","[9]; 30 min, SDS-PAGE, estimated",approximately 50 nM
same,incubation time after which labeling no longer increases (maximal labeling),[9]; probe 250 nM,30 min
same,minimal incubation time after which probe-bound GrA is detected,[9]; probe 250 nM,5 min
same,probe labeling of GrA zymogen (in words),[10],no signal was detected in the zymogen
same,inhibition of PR3,[11],almost no inhibition effect
same,inhibition of GrM,[12],almost no inhibition effect
L-Arg,relative GrA activity on P1 library substrate Ac-Ile-Ser-Pro-P1-ACC,[13],92%
L-Asp,relative GrA activity on P1 library substrate Ac-Ile-Ser-Pro-P1-ACC,[13],17.8%
L-Lys,relative GrA activity on P1 library substrate Ac-Ile-Ser-Pro-P1-ACC,[13],21%
